According to patent US9708639B2, “Method for quantifying amino acids with pyrophosphate” (TOYAMA PREFECTURE, priority 2012, dated 2017):

Biological target: T1, Thermotoga-derived TyrRS (Thermotoga maritima, UniProt Q9WYU8)
T1 construct: The amplification products were each inserted into pET-28a to obtain plasmids for expression of respective AARSs; His tag (N); made in house; host or cells: Escherichia coli BL21 (DE3)
T1 sequence (Q9WYU8 1-401): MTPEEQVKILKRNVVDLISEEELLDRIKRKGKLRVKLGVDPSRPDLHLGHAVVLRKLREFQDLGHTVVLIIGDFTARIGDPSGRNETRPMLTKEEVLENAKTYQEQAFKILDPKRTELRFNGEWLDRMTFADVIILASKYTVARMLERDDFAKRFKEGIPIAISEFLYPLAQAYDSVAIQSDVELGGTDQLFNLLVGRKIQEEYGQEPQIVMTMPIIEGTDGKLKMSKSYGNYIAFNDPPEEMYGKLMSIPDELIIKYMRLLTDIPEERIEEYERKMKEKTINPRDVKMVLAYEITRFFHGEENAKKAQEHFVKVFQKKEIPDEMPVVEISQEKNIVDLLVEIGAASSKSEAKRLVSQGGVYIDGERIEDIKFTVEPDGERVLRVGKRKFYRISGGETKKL
Experiment: Calibration curve for amino acid by coupled PPDK and LDH
Format: biochemical, Thermotoga maritima MSB8 strain
Conditions: Tyr 0 to 200 μM; hydroxylamine 200 mM; TyrRS 0.4 mg/ml (40 mU/ml); 30° C.
Protocol: A test sample containing an amino acid as the measurement subject and a reaction mixture for quantifying amino acid having the following composition were mixed. The mixture was left standing at 30° C. to allow the AARS, PPDK, and LDH reactions to advance, and decrease of the absorbance at 340 nm was measured. The volume of the mixture was 200 μl, and after the reaction mixture was put into the wells of a 96-well microplate, the absorbance was measured with a microplate reader.
Reaction mixture for quantifying amino acid: 20 mM Tris-HCl (pH 7.0), 10 mM MgCl2, 10 mM NH4Cl, 0.3 mM PEP, 0.3 mM NADH, 0.2 mM ATP, 0.2 mM AMP, 70 mU/ml PPDK, 50 U/ml LDH, and AARS (concentrations are final concentrations obtained after mixing with test sample)
Calibration curves were prepared by using the AARS activity measurement method described in 8. and standard Cys, Lys, Ser, and Tyr solutions as test samples. The concentrations of the aforementioned amino acids were set so that the final concentrations thereof are in the range of 0 to 200 μM. The hydroxylamine concentration was 200 mM for the samples used for the Tyr calibration curve, or 1000 mM for the samples used for the Cys, Lys, and Ser calibration curves. The Thermotoga-derived CysRS, LysRS, SerRS, TyrRS, and the Thermus-derived TyrRS were added to the reaction mixture at final concentrations of 0.2 (7 mU/ml), 0.1 (10 mU/ml), 0.2 (8 mU/ml), 0.4 (40 mU/ml), and 0.1 mg/ml, respectively.
Calibration curves could be similarly prepared when adding pyrophosphate instead of the aforementioned amino acids, but the inclinations of the Lys, Ser, and Tyr calibration curves (absorbance change per mM of substrate) were 80% or more of the inclination of the pyrophosphate calibration curve. […] The inclination of the Cys calibration curve was slightly smaller than those of the other calibration curves, and it is considered that this is because a part of cysteine in the test sample was converted into cystine by air oxidation, and the real concentration of cysteine was reduced.

N[C@@H](Cc1ccc(O)cc1)C(=O)O [Tyr, L-tyrosine]
inclination of calibration curve relative to inclination of the pyrophosphate calibration curve: ≥ 80%
